Reference: patent US20090202494A1, “Combined use of glp-1 agonists and gastrin for regulating blood glucose levels” (priority 2004, published 2009)

Columns and labels:
Type in all cases: in vivo, mouse
[1] = tested on: acutely-diabetic NOD mice; assay: Example 2: pancreatic insulin levels in NOD mice
Protocol: (§1) The mice were monitored daily for urine glucose levels and weekly for FBG levels during the treatment and for an additional 6 weeks after the treatment was stopped. The pancreatic insulin levels were determined in each group as well as histological analysis of the pancreatic tissue was performed. Pancreatic tissues were fixed and stained for insulin producing cells. The beta cell mass was determined by morphometric analysis.

[2] = tested on: acutely-diabetic NOD mice; assay: Example 1: fasting blood glucose in acutely-diabetic NOD mice treated with GLP-1 or GLP-1 + Gastrin
Protocol: Female NOD mice ages 12-16 weeks were treated for 18 days only with vehicle (PBS), GLP-1 (300 μg/kg/day), or GLP-1 (300 μg/kg/day)+Gastrin (3 μg/kg/day), by injection intraperitoneally twice daily within 2 days after diabetes onset. Onset of diabetes was determined by fasting blood glucose (FBG) levels (9-15 mM compared with normal FBG <6.0 mM). The mice were monitored daily for urine glucose and weekly for FBG levels.
At the start of the treatments, fasting blood glucose levels ranged between 11-14 mM. After 18 days of treatments, FBG was 24±1 mM in vehicle-treated mice, 13±2 mM in mice treated with GLP-1 alone, and 6±1 mM in mice treated with the combination of GLP-1 and Gastrin (mean±SE, n=4 mice in treated groups; n=6 mice in the control group).
After 18 days of treatment therapy was stopped and FBG was monitored weekly for additional six weeks. […] Comparatively, the untreated group of animals had to be sacrificed due to the severity of the disease after five weeks.

[3] = tested on: acutely-diabetic NOD mice; assay: Example 2: fasting blood glucose in acutely-diabetic NOD mice, during treatment and 6 weeks after
Protocol: as §1

GLP-1(7-36) Amide, Human
effect on pancreatic insulin levels (in words) [1]: modest effect only | FBG course during six weeks after treatment was stopped ([2]; FBG monitored weekly for six weeks post treatment): transient improvement in FBG levels up to 2 weeks after the treatment was stopped | fasting blood glucose (FBG) after 18 days of treatments ([2]; female NOD mice, i.p. twice daily for 18 days, GLP-1 300 μg/kg/day, Gastrin 3 μg/kg/day, mean±SE, n=4, normal FBG <6.0 mM): 13 ± 2 mM | fasting blood glucose after 18 days of daily treatments ([3]; NOD mice, i.p. twice daily, combination printed as 30 μg/kg/day of GLP-1 and 3 μg/kg/day of G1): 12.5 ± 2.2 mM | maximal blood glucose levels reached post treatment ([3]; after treatments stopped, animals suffering from diabetic complications): over 30 mM
